In patent US20250313533A1, “QUINOLINE CARBOXYLIC ACID ESTER COMPOUND AND PREPARATION METHOD AND USE THEREOF” (priority 2019, published 2025):

Key:
[1] = test system: indoor potted cucumber seedlings; assay: Effect of improving growth and development of crops; format: in vivo; parameters: Rate of growth rate increase (%): concentration or dose not given beside the values; settings: versus blank control; for Rate of chlorophyll content increase (%) / Rate of leaf area increase (%): 14 days after application; for Rate of growth rate increase (%): plant height 14 days after application; for Rate of leaf area increase (%): second leaf
In short: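 Before treatment, plant height and the second leaf's length and width are recorded. After 14 days these are repeated, chlorophyll is read by meter, and percentage increases in growth rate, leaf area and chlorophyll are computed.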

[2] = test system: pathogenic bacteria causing bacterial wilt in cassava; assay: organism not typed; format: cell-based; settings: read-out: inhibitory rate
[3] = test system: soft rot in Chinese cabbages; assay: whole plant or invertebrate; settings: 48 h, read-out: efficacy against soft rot in Chinese cabbages
[4] = test system: pathogenic bacteria causing bacterial angular leaf spot in cucumbers; assay: In vitro bactericidal activity, bacterial angular leaf spot in cucumbers; format: cell-based, pseudomonas; settings: read-out: inhibitory rate; for inhibition at 1 ppm: dosage 1 ppm; for inhibition at 5 ppm: dosage 5 ppm
[5] = test system: pathogenic bacteria causing fruit blotch in watermelons; assay: In vitro bactericidal activity, fruit blotch in watermelons; format: cell-based, acidovorax; settings: read-out: inhibitory rate; for inhibition at 1 ppm: dosage 1 ppm; for inhibition at 5 ppm: dosage 5 ppm
[6] = test system: pathogenic bacteria causing fire blight in pears; assay: In vitro bactericidal activity, fire blight in pears; format: cell-based, erwinia; settings: Erwinia, read-out: inhibitory rate; for inhibition at 1 ppm: dosage 1 ppm; for inhibition at 5 ppm: dosage 5 ppm
[7] = test system: pathogenic bacteria causing bacterial wilt in tobacco; assay: whole plant or invertebrate; format: cell-based, ralstonia; settings: read-out: inhibitory rate
cucumber seedlings = assay: Safety for plant growth after application; format: in vivo; settings: dosage 200 ppm
In short: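 Potted cucumber seedlings grown indoors; read-outs: plant-height growth rate, chlorophyll content, leaf area.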

black shank in potatoes = assay: Living crops in vivo protective activity, potatoes (root irrigation); settings: Solanum tuberosum, read-out: efficacy against black shank in potatoes; for pest or weed control at 5 ppm: dosage 5 ppm; for pest or weed control at 10 ppm: dosage 10 ppm
Description: Root irrigation was carried out on the potatoes for tests according to the designed concentration of the agents. The dosage for each plant was 200 mL and was kept consistent (also for the control). The black shank bacteria were inoculated on the second day after the application. The results were investigated according to the disease condition.

bacterial blight in rice = assay: whole plant or invertebrate; settings: Oryza sativa, read-out: efficacy against bacterial blight in rice
[8] = test system: pathogenic bacteria causing black rot in Chinese cabbages; assay: In vitro bactericidal activity, black rot in Chinese cabbages; format: cell-based, xanthomonas; settings: Xanthomonas, read-out: inhibitory rate; for inhibition at 1 ppm: dosage 1 ppm; for inhibition at 5 ppm: dosage 5 ppm
[9] = test system: fruit blotch in watermelons; assay: whole plant or invertebrate; settings: read-out: efficacy against fruit blotch in watermelons
[10] = test system: stem rot in sweet potatoes; assay: whole plant or invertebrate; settings: read-out: efficacy against stem rot in sweet potatoes
[11] = test system: pathogenic bacteria causing bacterial blight in rice; assay: whole plant or invertebrate; format: cell-based, xanthomonas; settings: read-out: inhibitory rate
[12] = test system: pathogenic bacteria causing black shank in potatoes; assay: In vitro bactericidal activity, black shank in potatoes; format: cell-based; settings: read-out: inhibitory rate; for inhibition at 1 ppm: dosage 1 ppm; for inhibition at 5 ppm: dosage 5 ppm
[13] = test system: pathogenic bacteria causing stem rot in sweet potatoes; assay: In vitro bactericidal activity, stem rot in sweet potatoes; format: cell-based, dikia; settings: read-out: inhibitory rate; for inhibition at 1 ppm: dosage 1 ppm; for inhibition at 5 ppm: dosage 5 ppm
[14] = test system: bacterial wilt in tobacco; assay: whole plant or invertebrate; settings: Nicotiana tabacum, read-out: efficacy against bacterial wilt in tobacco

Row | SMILES | Rate of chlorophyll content increase (%) [1] [%] | Rate of growth rate increase (%) [1] [%] | Rate of leaf area increase (%) [1] [%] | inhibition at 1 ppm [2] [%] | inhibition at 5 ppm [2] [%] | pest or weed control at 5 ppm [3] [%] | pest or weed control at 10 ppm [3] [%] | inhibition at 1 ppm [4] [%] | inhibition at 5 ppm [4] [%] | inhibition at 1 ppm [5] [%] | inhibition at 5 ppm [5] [%] | inhibition at 1 ppm [6] [%] | inhibition at 5 ppm [6] [%] | inhibition at 1 ppm [7] [%] | inhibition at 5 ppm [7] [%] | safety for plant growth (discoloration, necrosis, wilt, malformation) (cucumber seedlings) | pest or weed control at 5 ppm (black shank in potatoes) [%] | pest or weed control at 10 ppm (black shank in potatoes) [%] | pest or weed control at 5 ppm (bacterial blight in rice) [%] | pest or weed control at 10 ppm (bacterial blight in rice) [%] | further results
1 | O=C(OCCO)c1cn(C2CC2)c2cc(Cl)c(F)cc2c1=O [Compound 151, 2-hydroxyethyl-7-chloro-1-cyclopropyl-6-fluoro-4-oxo-1,4-dihydroquinoline-3-carboxylate] | 15 | 12 | 16 | ≥ 90 | ≥ 90 | ≥ 90 | ≥ 90 | ≥ 90 | ≥ 90 | ≥ 90 | ≥ 90 | ≥ 90 | ≥ 90 | ≥ 90 | ≥ 90 | safe for plant growth | ≥ 90 | ≥ 90 | ≥ 90 | ≥ 90 | inhibition at 1 ppm [8]: ≥ 90%; inhibition at 5 ppm [8]: ≥ 90%; pest or weed control at 5 ppm [9]: ≥ 90%; pest or weed control at 10 ppm [9]: ≥ 90%; pest or weed control at 5 ppm [10]: ≥ 90%; pest or weed control at 10 ppm [10]: ≥ 90%; inhibition at 1 ppm [11]: ≥ 90%; inhibition at 5 ppm [11]: ≥ 90%; inhibition at 1 ppm [12]: ≥ 90%; inhibition at 5 ppm [12]: ≥ 90%; inhibition at 1 ppm [13]: ≥ 90%; inhibition at 5 ppm [13]: ≥ 90%; pest or weed control at 5 ppm [14]: ≥ 90%; pest or weed control at 10 ppm [14]: ≥ 90%
2 | CCNc1cc2c(cc1F)c(=O)c(C(=O)OCCOC)cn2C1CC1 [Compound 408] | 18 | 12 | 12 | ≥ 90 | ≥ 90 | ≥ 90 | ≥ 90 | ≥ 90 | ≥ 90 | ≥ 90 | ≥ 90 | ≥ 90 | ≥ 90 | ≥ 90 | ≥ 90 | safe for plant growth | ≥ 90 | ≥ 90 | ≥ 90 | ≥ 90 | inhibition at 1 ppm [8]: ≥ 90%; inhibition at 5 ppm [8]: ≥ 90%; pest or weed control at 5 ppm [9]: ≥ 90%; pest or weed control at 10 ppm [9]: ≥ 90%; pest or weed control at 5 ppm [10]: ≥ 90%; pest or weed control at 10 ppm [10]: ≥ 90%; inhibition at 1 ppm [11]: ≥ 90%; inhibition at 5 ppm [11]: ≥ 90%; inhibition at 1 ppm [12]: ≥ 90%; inhibition at 5 ppm [12]: ≥ 90%; inhibition at 1 ppm [13]: ≥ 90%; inhibition at 5 ppm [13]: ≥ 90%; pest or weed control at 5 ppm [14]: ≥ 90%; pest or weed control at 10 ppm [14]: ≥ 90%
3 | O=C(OCCO)c1cn(C2CC2)c2cc(OCC(F)(F)F)c(F)cc2c1=O [Compound 275] | 13 | 12 | 11 | ≥ 90 | ≥ 90 | ≥ 90 | ≥ 90 | ≥ 90 | ≥ 90 | ≥ 90 | ≥ 90 | ≥ 90 | ≥ 90 | ≥ 90 | ≥ 90 | safe for plant growth | ≥ 90 | ≥ 90 | ≥ 90 | ≥ 90 | inhibition at 1 ppm [8]: ≥ 90%; inhibition at 5 ppm [8]: ≥ 90%; pest or weed control at 5 ppm [9]: ≥ 90%; pest or weed control at 10 ppm [9]: ≥ 90%; pest or weed control at 5 ppm [10]: ≥ 90%; pest or weed control at 10 ppm [10]: ≥ 90%; inhibition at 1 ppm [11]: ≥ 90%; inhibition at 5 ppm [11]: ≥ 90%; inhibition at 1 ppm [12]: ≥ 90%; inhibition at 5 ppm [12]: ≥ 90%; inhibition at 1 ppm [13]: ≥ 90%; inhibition at 5 ppm [13]: ≥ 90%; pest or weed control at 5 ppm [14]: ≥ 90%; pest or weed control at 10 ppm [14]: ≥ 90%
4 | COc1cc2c(cc1F)c(=O)c(C(=O)OCCO)cn2C1CC1 [Compound 264] | 12 | 9 | 11 | ≥ 90 | ≥ 90 | ≥ 90 | ≥ 90 | ≥ 90 | ≥ 90 | ≥ 90 | ≥ 90 | ≥ 90 | ≥ 90 | ≥ 90 | ≥ 90 | safe for plant growth | ≥ 90 | ≥ 90 | ≥ 90 | ≥ 90 | inhibition at 1 ppm [8]: ≥ 90%; inhibition at 5 ppm [8]: ≥ 90%; pest or weed control at 5 ppm [9]: ≥ 90%; pest or weed control at 10 ppm [9]: ≥ 90%; pest or weed control at 5 ppm [10]: ≥ 90%; pest or weed control at 10 ppm [10]: ≥ 90%; inhibition at 1 ppm [11]: ≥ 90%; inhibition at 5 ppm [11]: ≥ 90%; inhibition at 1 ppm [12]: ≥ 90%; inhibition at 5 ppm [12]: ≥ 90%; inhibition at 1 ppm [13]: ≥ 90%; inhibition at 5 ppm [13]: ≥ 90%; pest or weed control at 5 ppm [14]: ≥ 90%; pest or weed control at 10 ppm [14]: ≥ 90%
5 | CCSc1cc2c(cc1F)c(=O)c(C(=O)OCCO)cn2C1CC1 [Compound 372] | 11 | 8 | 10 | ≥ 90 | ≥ 90 | ≥ 90 | ≥ 90 | ≥ 90 | ≥ 90 | ≥ 90 | ≥ 90 | ≥ 90 | ≥ 90 | ≥ 90 | ≥ 90 | safe for plant growth | ≥ 90 | ≥ 90 | ≥ 90 | ≥ 90 | inhibition at 1 ppm [8]: ≥ 90%; inhibition at 5 ppm [8]: ≥ 90%; pest or weed control at 5 ppm [9]: ≥ 90%; pest or weed control at 10 ppm [9]: ≥ 90%; pest or weed control at 5 ppm [10]: ≥ 90%; pest or weed control at 10 ppm [10]: ≥ 90%; inhibition at 1 ppm [11]: ≥ 90%; inhibition at 5 ppm [11]: ≥ 90%; inhibition at 1 ppm [12]: ≥ 90%; inhibition at 5 ppm [12]: ≥ 90%; inhibition at 1 ppm [13]: ≥ 90%; inhibition at 5 ppm [13]: ≥ 90%; pest or weed control at 5 ppm [14]: ≥ 90%; pest or weed control at 10 ppm [14]: ≥ 90%
